According to patent publication EP0231622B1, “Inhibition of the 5-lipoxygenase pathway” (priority 1985, dated 1987):
Like-named read-outs stand apart in the source and are kept apart here. Marks after values point to notes of the source that are not given here.

Tests used:
[1] = tested on: Polymorphonuclear Leukocytes; assay: Mouse Carrageenan Peritonitis (PMN infiltration); type: in vivo, Balb/c mice; conditions: for % Change / PMN x 10⁻⁵/ml (mean ± S.D.): Table 1, p.o.
Outline: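 Male Balb/c mice dosed orally by gavage (compounds in 0.5% tragacanth) 1 h before i.p. 1.0% carrageenan; NDGA given s.c. Peritoneal lavage with Ca/Mg-free PBS 2 h post-injection; total cells by Coulter counter, differentials from Giemsa-stained slides.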

[2] = tested on: Carrageenan-Induced Cellular Infiltration; assay: Carrageenan-induced air pouch inflammation; type: in vivo, Lewis rats; conditions: 100 mg/kg; 3 hours after carrageenan
From the text: (§1) In the following Examples where mice were used, they were male Balb/c mice (20-28 g), and where rats were used, they were male Lewis rats (180-210 g). All mice and rats were obtained from Charles River Breeding Laboratories, Kingston, N.Y. Within a single experiment, mice and rats were sex and age matched.
(§2) The compounds of Formula (IA) were used either as the free base or in the appropriate salt form. Levamisole was used as the hydrochloride salt. The compounds were homogenized in 0.5% tragacanth. Compounds were administered by gavage at the indicated dose in a final volume of 10 ml/kg. Nordihydroguaiaretic acid (NDGA) was solubilized in dimethylacetamide and diluted with olive oil for subcutaneous administration.
Rats were shaved on the dorsal flank, and then injected subcutaneously one day later with 20 ml of air to form a defined pouch, by the method of Sedgwick et al., J. Pathology, 141, 483-495 (1983). The air pouch was reinflated as necessary over the next 6 days. To assay anti-inflammatory activity, animals were treated orally with test compound or vehicle (10 ml/kg) one hour before injection of 2.0 ml of a 2.0% carrageenan suspension containing 200 units/ml penicillin and 100 »g/ml streptomycin into the air pouch. In other experiments, 5 ml of 0.1% arachidonic acid in 0.2 M bicarbonate buffer was injected two hours after drug treatment. Animals were sacrificed using CO₂ three hours after instillation of irritant. The exudate was then aspirated from the pouch and neutrophil count and differential cell count were measured.

[3] = tested on: Arachidonic Acid-Induced Rat Paw Edema; assay: Arachidonic acid-induced rat paw swelling; type: in vivo, Lewis rats; conditions: 100 mg/kg, read at 2 hours
From the text: as §1, §2

[4] = tested on: Production of PGE₂ by Mouse Peritoneal Exudate Cells; assay: PGE2 production by peritoneal macrophages; type: cell-based
Procedure: For in vitro experiments, compounds were dissolved at appropriate concentrations in ethanol or DMSO (dimethylsulfoxide) (final concentration <1.0%) and then diluted to final concentrations using the buffers indicated in the text.
Mice were injected intraperitoneally with 350 »g Corynebacterium parvum and the peritoneal exudate cell population was harvested 12-14 days later by peritoneal lavage with cold phosphate-buffered saline, and resuspended in Eagles minimal essential medium supplemented with 5% fetal calf serum. […] Test compounds were added (100 ul) to bring the final volume to 1.0 ml. Lipopolysaccharide (5 »g/ml) was then added to stimulate PGE₂ synthesis. After incubation at 37°C for 2 hours, cell-free supernatants were harvested, placed in polypropylene tubes and frozen at -20°C until assayed for their PGE₂ content using a commercial radioimmunoassay kit. IC₅₀ is the concentration that inhibits 50% of control activity.

- IC50 ([4]; Macrophage, read-out: IC₅₀ production of PGE₂ by inflammatory macrophages): 700 nM
- IC50 ([4]; Peritoneal macrophage, Table 10, LPS-stimulated, C. parvum-elicited peritoneal exudate cells, read-out: IC₅₀ (»M) production of PGE₂): 700 nM
Structure (SMILES): Fc1ccc(-c2nc3n(c2-c2ccncc2)CCS3)cc1 [Compound 1, 5-(4-pyridyl)-6-(4-fluorophenyl)-2,3-dihydroimidazo[2,1-b]thiazole]
- ED50 ([1]; Mus musculus, Leukocyte, po, intraperitoneal carrageenan in mice, read-out: ED₅₀ (inhibition of PMN infiltration)): 43.9 mg/kg
- % Change ([1]; 25 mg/kg): -27^e %
- % Change ([1]; 50 mg/kg): -56^c %
- PMN x 10⁻⁵/ml (mean ± S.D.) ([1]; 50 mg/kg): 4.84 ± 3.01 x 10⁻⁵/ml
- PMN x 10⁻⁵/ml (mean ± S.D.) ([1]; 100 mg/kg, 1 h before i.p. carrageenan, read 2 h later): 2.48 ± 0.98 x 10⁻⁵/ml
- % Change ([1]; 100 mg/kg, PMN vs vehicle): -77^b %
- Cellular Infiltrate (Total x 10⁻⁶) MN [2]: 5.5 ± 3.8^e x 10⁻⁶
- Cellular Infiltrate (Total x 10⁻⁶) PMN [2]: 2.6 ± 1.3^d x 10⁻⁶
- Exudate Volume [2]: 1.0 ± 0.9 mL
- Change in Paw Volume ([3]; one hour before arachidonic acid): 0.06 ± 0.05 mL
- (% Inhibition) of change in paw volume [3]: 78%
